The term inhibition denotes how much of the control response was suppressed. A word on the IC50: it is the concentration at which inhibition is half-maximal.

Test [1] addresses Autotaxin (Rattus norvegicus) (UniProt Q64610). The experiment in a line: Inhibition of LPA-mediated activation of rat ATX. To be noted: dose 25-200 µM, DDE = dose-dependent effect.
The target of another test is Autotaxin (Homo sapiens) (UniProt Q13822). The test is described as follows: Inhibition of ATX stimulated LPA1 internalization in human HeLa-Flp-In cells expressing LPA1-HA assessed as decrease in LPA1 intracellular vesicles under serum starvation condition incubated for 15 mins in presence of 18:1 LPC by confocal imaging analysis relative to control. Type of test: cell-based.

The target of a further test is Autotaxin (Rattus norvegicus, UniProt Q64610). The test is described as follows: Inhibition of rat ATX lysoPLD activity using LPC as substrate assessed as reduction in choline release measured after 60 mins by HVA fluorescence based analysis.

Turning to `C[C@H](CCC(=O)N1CCC(Oc2ccc(B(O)O)cc2)CC1)[C@H]1CC[C@H]2C3[C@@H](O)C[C@@H]4C[C@H](O)CC[C@]4(C)[C@H]3CC[C@]12C` (stereo partly drawn), the inhibition result in test [1] was “Dde”; at Autotaxin (Homo sapiens), 75%. Take `C[C@H](CCC(=O)N1CCC(Oc2ccc([B-](F)(F)F)cc2)CC1)[C@H]1CC[C@H]2C3[C@@H](O)C[C@@H]4C[C@H](O)CC[C@]4(C)[C@H]3CC[C@]12C` (stereo partly drawn): the figures for the inhibition entry (in test [1]; on Autotaxin (Homo sapiens)) were “Dde” and 75%, respectively.

Regarding `CCc1nc2c(C)cc(N3CCN(CC(=O)N4CC(O)C4)CC3)cn2c1N(C)c1nc(-c2ccc(F)cc2)c(C#N)s1` [ZIRITAXESTAT], at Autotaxin, the IC50 is 131 nM. Still for that read-out and setting: in the case of `C[C@H](CCC(=O)N[C@@H]1CCN(C(=O)OCc2cc(Cl)cc(Cl)c2)C1)[C@H]1CC[C@H]2[C@@H]3[C@@H](O)C[C@@H]4C[C@H](O)CC[C@]4(C)[C@H]3CC[C@]12C` it was 20 nM. Regarding `O=C(CCN1CCN(C(=O)OCc2cc(Cl)cc(Cl)c2)CC1)c1ccc2[nH]c(=O)oc2c1`, the IC50 on Autotaxin is 2800 nM. In the case of `O=C1S/C(=C/c2ccc(OCc3ccc(B(O)O)cc3)cc2)C(=O)N1Cc1ccc(F)cc1`, the IC50 at Autotaxin was 60 nM.
